{"source": "PubChem BioAssay AID1963960", "about": "(Molecular Pharmacology Branch, DTP, NCI, 2024)", "test_system": "MDA-MB-468 spheroids with HUVEC/MSC, viability", "test": "Anticancer human tumor MDA-MB-468 cell line growth inhibition [PI3K];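 as to all read-outs here: spheroids exposed to agents for seven days before readout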;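 as to viability, T/C: 100% = DMSO vehicle control viability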", "conditions": "for IC50: curve of first compound; for viability, T/C: stronger effect = lower value", "outline": "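Agents were dosed from a top concentration near clinical Cmax (otherwise 10 microM) in half-log decrements, alone or combined with PI3K inhibitors. The spheroids contain tumor cells plus endothelial (HUVEC) and MSC stroma; viability is measured.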", "key": {"[1]": {"conditions": "second compound 0.00316 µM, first compound 0.0316 µM"}, "[2]": {"conditions": "second compound 0.00316 µM, first compound 0.1 µM"}, "[3]": {"conditions": "second compound 0.00316 µM, first compound 0.316 µM"}, "[4]": {"conditions": "second compound 0.00316 µM, first compound 1 µM"}, "[5]": {"conditions": "second compound 0.00316 µM, first compound 3.16 µM"}, "[6]": {"conditions": "second compound 0.00316 µM, first compound 10 µM"}, "[7]": {"conditions": "second compound 0.01 µM, first compound 0.0316 µM"}, "[8]": {"conditions": "second compound 0.01 µM, first compound 0.1 µM"}, "[9]": {"conditions": "second compound 0.01 µM, first compound 0.316 µM"}, "[10]": {"conditions": "second compound 0.01 µM, first compound 1 µM"}, "[11]": {"conditions": "second compound 0.01 µM, first compound 3.16 µM"}, "[12]": {"conditions": "second compound 0.01 µM, first compound 10 µM"}, "[13]": {"conditions": "second compound 0.0316 µM, first compound 0.0316 µM"}, "[14]": {"conditions": "second compound 0.0316 µM, first compound 0.1 µM"}, "[15]": {"conditions": "second compound 0.0316 µM, first compound 0.316 µM"}, "[16]": {"conditions": "second compound 0.0316 µM, first compound 1 µM"}, "[17]": {"conditions": "second compound 0.0316 µM, first compound 3.16 µM"}, "[18]": {"conditions": "second compound 0.0316 µM, first compound 10 µM"}, "[19]": {"conditions": "second compound 0.1 µM, first compound 0.0316 µM"}, "[20]": {"conditions": "second compound 0.1 µM, first compound 0.1 µM"}, "[21]": {"conditions": "second compound 0.1 µM, first compound 0.316 µM"}, "[22]": {"conditions": "second compound 0.1 µM, first compound 1 µM"}, "[23]": {"conditions": "second compound 0.1 µM, first compound 3.16 µM"}, "[24]": {"conditions": "second compound 0.1 µM, first compound 10 µM"}, "[25]": {"conditions": "second compound 0.316 µM, first compound 0.0316 µM"}, "[26]": {"conditions": "second compound 0.316 µM, first compound 0.1 µM"}, "[27]": {"conditions": "second compound 0.316 µM, first compound 0.316 µM"}, "[28]": {"conditions": "second compound 0.316 µM, first compound 1 µM"}, "[29]": {"conditions": "second compound 0.316 µM, first compound 3.16 µM"}, "[30]": {"conditions": "second compound 0.316 µM, first compound 10 µM"}, "[31]": {"conditions": "second compound 1 µM, first compound 0.0316 µM"}, "[32]": {"conditions": "second compound 1 µM, first compound 0.1 µM"}, "[33]": {"conditions": "second compound 1 µM, first compound 0.316 µM"}, "[34]": {"conditions": "second compound 1 µM, first compound 1 µM"}, "[35]": {"conditions": "second compound 1 µM, first compound 3.16 µM"}, "[36]": {"conditions": "second compound 1 µM, first compound 10 µM"}}}
{"smiles": "C=CC(=O)N1CCN(c2nc(=O)n(-c3c(C)ccnc3C(C)C)c3nc(-c4c(O)cccc4F)c(F)cc23)C(C)C1", "note": "(centres undefined) + COc1c(OCCCN2CCOCC2)ccc2c3n(c(=NC(=O)c4cnc(N)nc4)nc12)CCN3", "values": [{"measurement": "IC50", "setting": "second compound 0.00316 µM", "result": "> 10000", "unit": "nM"}, {"measurement": "IC50", "setting": "second compound 0.01 µM", "result": "> 10000", "unit": "nM"}, {"measurement": "IC50", "setting": "second compound 0.0316 µM", "result": "> 10000", "unit": "nM"}, {"measurement": "IC50", "setting": "second compound 0.1 µM", "result": "> 10000", "unit": "nM"}, {"measurement": "IC50", "setting": "second compound 0.316 µM", "result": "< 31.6", "unit": "nM"}, {"measurement": "IC50", "setting": "second compound 1 µM", "result": "< 31.6", "unit": "nM"}, {"measurement": "viability, T/C", "setting": "[1]", "result": 92, "unit": "%"}, {"measurement": "viability, T/C", "setting": "[2]", "result": 92.9, "unit": "%"}, {"measurement": "viability, T/C", "setting": "[3]", "result": 97.5, "unit": "%"}, {"measurement": "viability, T/C", "setting": "[4]", "result": 109, "unit": "%"}, {"measurement": "viability, T/C", "setting": "[5]", "result": 104, "unit": "%"}, {"measurement": "viability, T/C", "setting": "[6]", "result": 79.1, "unit": "%"}, {"measurement": "viability, T/C", "setting": "[7]", "result": 81.1, "unit": "%"}, {"measurement": "viability, T/C", "setting": "[8]", "result": 80.5, "unit": "%"}, {"measurement": "viability, T/C", "setting": "[9]", "result": 102, "unit": "%"}, {"measurement": "viability, T/C", "setting": "[10]", "result": 97, "unit": "%"}, {"measurement": "viability, T/C", "setting": "[11]", "result": 99.7, "unit": "%"}, {"measurement": "viability, T/C", "setting": "[12]", "result": 70.1, "unit": "%"}, {"measurement": "viability, T/C", "setting": "[13]", "result": 75.2, "unit": "%"}, {"measurement": "viability, T/C", "setting": "[14]", "result": 73.4, "unit": "%"}, {"measurement": "viability, T/C", "setting": "[15]", "result": 79.8, "unit": "%"}, {"measurement": "viability, T/C", "setting": "[16]", "result": 89.7, "unit": "%"}, {"measurement": "viability, T/C", "setting": "[17]", "result": 80.2, "unit": "%"}, {"measurement": "viability, T/C", "setting": "[18]", "result": 65, "unit": "%"}, {"measurement": "viability, T/C", "setting": "[19]", "result": 56.7, "unit": "%"}, {"measurement": "viability, T/C", "setting": "[20]", "result": 58.4, "unit": "%"}, {"measurement": "viability, T/C", "setting": "[21]", "result": 50.9, "unit": "%"}, {"measurement": "viability, T/C", "setting": "[22]", "result": 63.1, "unit": "%"}, {"measurement": "viability, T/C", "setting": "[23]", "result": 61.5, "unit": "%"}, {"measurement": "viability, T/C", "setting": "[24]", "result": 41.3, "unit": "%"}, {"measurement": "viability, T/C", "setting": "[25]", "result": 29.9, "unit": "%"}, {"measurement": "viability, T/C", "setting": "[26]", "result": 26.6, "unit": "%"}, {"measurement": "viability, T/C", "setting": "[27]", "result": 27.8, "unit": "%"}, {"measurement": "viability, T/C", "setting": "[28]", "result": 31.4, "unit": "%"}, {"measurement": "viability, T/C", "setting": "[29]", "result": 28.2, "unit": "%"}, {"measurement": "viability, T/C", "setting": "[30]", "result": 18.4, "unit": "%"}, {"measurement": "viability, T/C", "setting": "[31]", "result": 4.14, "unit": "%"}, {"measurement": "viability, T/C", "setting": "[32]", "result": 3.02, "unit": "%"}, {"measurement": "viability, T/C", "setting": "[33]", "result": 3.41, "unit": "%"}, {"measurement": "viability, T/C", "setting": "[34]", "result": 3.9, "unit": "%"}, {"measurement": "viability, T/C", "setting": "[35]", "result": 3.76, "unit": "%"}, {"measurement": "viability, T/C", "setting": "[36]", "result": 2.73, "unit": "%"}]}
{"smiles": "CC(C)NCC(C(=O)N1CCN(c2ncnc3c2C(C)CC3O)CC1)c1ccc(Cl)cc1", "note": "(centres undefined) + COc1c(OCCCN2CCOCC2)ccc2c3n(c(=NC(=O)c4cnc(N)nc4)nc12)CCN3", "values": [{"measurement": "IC50", "setting": "second compound 0.00316 µM", "result": 910, "unit": "nM"}, {"measurement": "IC50", "setting": "second compound 0.01 µM", "result": 762, "unit": "nM"}, {"measurement": "IC50", "setting": "second compound 0.0316 µM", "result": 711, "unit": "nM"}, {"measurement": "IC50", "setting": "second compound 0.1 µM", "result": 219, "unit": "nM"}, {"measurement": "IC50", "setting": "second compound 0.316 µM", "result": "< 31.6", "unit": "nM"}, {"measurement": "IC50", "setting": "second compound 1 µM", "result": "< 31.6", "unit": "nM"}, {"measurement": "viability, T/C", "setting": "[1]", "result": 89.4, "unit": "%"}, {"measurement": "viability, T/C", "setting": "[2]", "result": 79.2, "unit": "%"}, {"measurement": "viability, T/C", "setting": "[3]", "result": 70.6, "unit": "%"}, {"measurement": "viability, T/C", "setting": "[4]", "result": 47.7, "unit": "%"}, {"measurement": "viability, T/C", "setting": "[5]", "result": 31.4, "unit": "%"}, {"measurement": "viability, T/C", "setting": "[6]", "result": 24.2, "unit": "%"}, {"measurement": "viability, T/C", "setting": "[7]", "result": 83.2, "unit": "%"}, {"measurement": "viability, T/C", "setting": "[8]", "result": 81.3, "unit": "%"}, {"measurement": "viability, T/C", "setting": "[9]", "result": 65.4, "unit": "%"}, {"measurement": "viability, T/C", "setting": "[10]", "result": 44.5, "unit": "%"}, {"measurement": "viability, T/C", "setting": "[11]", "result": 31.7, "unit": "%"}, {"measurement": "viability, T/C", "setting": "[12]", "result": 23.6, "unit": "%"}, {"measurement": "viability, T/C", "setting": "[13]", "result": 76.3, "unit": "%"}, {"measurement": "viability, T/C", "setting": "[14]", "result": 68.5, "unit": "%"}, {"measurement": "viability, T/C", "setting": "[15]", "result": 66.4, "unit": "%"}, {"measurement": "viability, T/C", "setting": "[16]", "result": 42.3, "unit": "%"}, {"measurement": "viability, T/C", "setting": "[17]", "result": 28.9, "unit": "%"}, {"measurement": "viability, T/C", "setting": "[18]", "result": 20.2, "unit": "%"}, {"measurement": "viability, T/C", "setting": "[19]", "result": 57.4, "unit": "%"}, {"measurement": "viability, T/C", "setting": "[20]", "result": 55.2, "unit": "%"}, {"measurement": "viability, T/C", "setting": "[21]", "result": 49.1, "unit": "%"}, {"measurement": "viability, T/C", "setting": "[22]", "result": 34.7, "unit": "%"}, {"measurement": "viability, T/C", "setting": "[23]", "result": 27.1, "unit": "%"}, {"measurement": "viability, T/C", "setting": "[24]", "result": 14.7, "unit": "%"}, {"measurement": "viability, T/C", "setting": "[25]", "result": 27.1, "unit": "%"}, {"measurement": "viability, T/C", "setting": "[26]", "result": 27, "unit": "%"}, {"measurement": "viability, T/C", "setting": "[27]", "result": 24.5, "unit": "%"}, {"measurement": "viability, T/C", "setting": "[28]", "result": 21.2, "unit": "%"}, {"measurement": "viability, T/C", "setting": "[29]", "result": 15.1, "unit": "%"}, {"measurement": "viability, T/C", "setting": "[30]", "result": 9.47, "unit": "%"}, {"measurement": "viability, T/C", "setting": "[31]", "result": 4.25, "unit": "%"}, {"measurement": "viability, T/C", "setting": "[32]", "result": 3.87, "unit": "%"}, {"measurement": "viability, T/C", "setting": "[33]", "result": 2.81, "unit": "%"}, {"measurement": "viability, T/C", "setting": "[34]", "result": 3.58, "unit": "%"}, {"measurement": "viability, T/C", "setting": "[35]", "result": 3.71, "unit": "%"}, {"measurement": "viability, T/C", "setting": "[36]", "result": 2.69, "unit": "%"}]}
